Values quoted from earlier work, collected in patent US6576227B1, “Peroxidase-activating oral compositions” (Oraceutical Innovative Properties, LLC, priority 1995, dated 2003).

How the values were obtained:
[1] = 20° C.
[2] = system: cellular DNA; conditions: elevated concentrations (greater than about 0.1 percent or about 29 millimoles per liter)

Row | Structure (SMILES) | pH upon dissolution, 1% solution (1% solution in water) | pH, saturated solution (saturated solution in water) | water solubility [1] | concentration of saturated solution ([1]; water) | mutagenicity and cellular DNA damage [2]
1 | NC(N)=O.OO [Carbamide peroxide] | approximately 4.05 | approximately 3.40 | 800 grams per liter | 44.4% | 
2 | OO [hydrogen peroxide] |  |  |  |  | mutagenic
